Values joined by “and” are separate entries in the source; they are usually repeats but may differ in a detail not shown here. Equal values may be shown once. Read-outs that look alike come from different tables or passages of the source. [ ]: non-standard residue; d: D form. The star is where a group is joined. OBn = c1ccc(CO*)cc1
Experiments:
[1] = target: T1, tetrameric LDH‐A (Homo sapiens, UniProt P00338); assay: Steady-state kinetics of pyruvate reduction by tetrameric LDH-A; type: biochemical; conditions: variable pyruvate, 125 μM β-NADH, 2.56 nM tetramer, pH 7.5, 25°C
T1 construct: made in house; host or cells: E. coli BL21(DE3), pET9a (NdeI/BamHI)
Experimental: (§1) To further characterize the catalytic action of monomeric LDH-A exposed to β-NADH and pyruvate, and therefore assembled into tetramer (cf. […] In addition, the kinetics of pyruvate reduction catalyzed by tetrameric LDH-A was assayed under the same conditions used for the monomeric enzyme. Structurally and functionally speaking, the availability of monomeric LDH-A does indeed provide an unprecedented and quite interesting tool to perform quantitative tests of the assembly of monomers into the corresponding catalytically active tetramer. […] In addition to this, the enzyme kinetic parameters were also determined testing reaction velocity as a function of β-NADH concentration, in the presence of 500 μM pyruvate. […] The continuous lines represent the best fit of the Michaelis-Menten equation to the experimental observations. […] The continuous lines represent the best fit of the Michaelis-Menten equation to the experimental observations. (c) Kinetic parameters determined by performing activity assays using monomeric or tetrameric LDH-A, at the indicated final concentrations. Under conditions of variable pyruvate concentration, β-NADH was always used at 125 μM. When reaction mixtures contained variable concentrations of the redox cofactor, pyruvate was invariably added at 500 μM. All the assays were performed at pH 7.5 (Tris-BisTris, 10 mM each.

[2] = target: T2, monomeric human LDH‐A (Homo sapiens, UniProt P00338); assay: Steady-state kinetics of pyruvate reduction by monomeric LDH-A (assembled monomers); type: biochemical; conditions: variable pyruvate, 125 μM β-NADH, 9.80 nM monomer, pH 7.5, 25°C
T2 construct: made in house; host or cells: E. coli BL21(DE3), pET9a (NdeI/BamHI)
Experimental: as §1

[3] = target: T1, tetrameric LDH‐A; conditions: previous observation, cited from earlier work
Description: Accordingly, monomeric LDH‐A features a rather high K m for pyruvate and, as previously mentioned, we interpret this feature as indicative of a secondary site for pyruvate, possibly engaged in the stabilization of the assembled tetramer.

[4] = target: T2, monomeric human LDH‐A; assay: Inhibition by peptides of LDH-A activity gained on assembly of monomeric LDH-A into tetramer; type: biochemical; conditions: 80 μM peptide incubated 5 min with 6.2 nM monomeric LDH-A, 10 mM Tris-HCl + 10 mM BisTris pH 7.5, started with 125 μM β-NADH and 500 μM pyruvate, 25°C, A340, vs control with 1% DMSO, mean ± SD, n = 3
Experimental: (§2) In particular, all the peptides were tested at 80 μM (final concentration), and the LDH activity detected in their presence was compared with the catalytic action observed with control samples devoid of any peptide. First, we decided to assay the octameric peptide TH1, the primary structure of which ([…]) is identical to the LDH‐A region spanning residues 295–302. […] Indeed, the catalytic action exerted by 6 nM tetrameric LDH‐A (in 10 mM Tris–HCl, pH 7.5, containing 150 mM NaCl) was determined as equal to 433 ± 11 and 452 ± 19 nM/s in the absence and in the presence of 80 μM TH1 octapeptide, respectively. Overall, this insensitivity along with the significant effect elicited by TH1 on monomeric LDH‐A indicate that the octapeptide inhibits the assembly of LDH‐A monomers into the corresponding, catalytically active, tetramer. To dissect the inhibition triggered by TH1 on monomeric LDH‐A, we decided to evaluate: (i) whether or not the two halves of the octapeptide, that is, GQNG and ISDL, are equally competent in inhibiting LDH‐A; (ii) the action of linear and cyclic peptides, containing or not D amino acids; and (iii) the effect, if any, triggered by the presence of protecting groups in the peptides to be assayed. It should be noted that to allow the cyclization of tetrapeptide GQNG while maintaining a terminal carboxylic group, the sequence was modified to GQND, while for the cyclization of ISDL while maintaining a terminal amino group, the sequence was modified into KSDL (Table 1).
FIGURE 8 Inhibition exerted by linear and cyclic peptides on LDH‐A activity detected in vitro. […] The gray bars (in “a” and “d”) represent the activity observed in the presence of the same volume of DMSO (1%, v/v) carried to the assay mixtures by the peptides to be tested. (a–c) The effect, if any, of tetrameric peptides featuring the GQND primary structure (see also Table 1) on LDH‐A activity is shown. The inhibition exerted by the octameric peptide TH1 is also reported in “a.” The enzyme activity observed in the presence of linear or cyclic peptides is shown in “b” and “c”, respectively. (d) Extent of LDH‐A activity detected in the presence of linear or cyclic tetrapeptides featuring the KSDL primary structure. Error bars represent SD (n = 3). The experimental observations were compared by Student's t‐test. The ***, **, and * symbols denote p values lower than 0.001, 0.01, and […], respectively. (e) Simulation of the association between the TH2 peptide and monomeric LDH‐A. Predicted interactions between the cyclopeptide c[GQN‐isoD] (TH2) and the N‐terminal sequence Y^9[…]^19, as simulated by molecular dynamics in a box of explicit TIP3P water molecules; gray and red dotted lines represent hydrogen bonds and salt bridges, respectively.
All the assays were performed at 25°C using a Cary 300 Bio spectrophotometer.

[5] = target: T1, tetrameric LDH‐A; assay: Activity assay of tetrameric LDH-A in the presence of peptide; type: biochemical; conditions: 6 nM tetrameric LDH-A, 10 mM Tris-HCl pH 7.5, 150 mM NaCl, 80 μM peptide
Experimental: as §2, with “It should be noted that to allow the cyclization of tetrapeptide GQNG while maintaining a terminal carboxylic group, the sequence was modified to GQND, while for the cyclization of ISDL while maintaining a terminal amino group, the sequence was modified into KSDL (Table 1).” left out

[6] = test system: MCF7 cells; assay: Colorimetric assay of lactate secretion by MCF7 cells (expressing LDH-A); type: cell-based, human; conditions: for decrease of the concentration of secreted lactate: MCF7, 80 μM peptide with Lipofectamine 2000 (0.5% v/v), 1% DMSO, Krebs-Ringer buffer, 4 h, 37°C, colorimetric, n = 3, vs cells without peptide
Description: Having identified peptides able to interfere with the assembly of monomeric LDH‐A into catalytically active tetramer, we considered of interest to test the action of peptides against LDH‐A expressed in human cell lines. In particular, we analyzed the lactate secreted by cultured human cells exposed or not to the peptides better performing as inhibitors of LDH‐A in vitro, that is, TH1, TH2, and TH16. Moreover, we used two different cell lines exclusively expressing LDH‐A or LDH‐B, that is, MCF7 and BxPC3, respectively. In MCF7 cells, the [mRNALDH‐A]/[mRNALDH‐B] ratio is indeed equal to ca. 150 (Figure 9a), whereas in BxPC3 cells the messenger coding for LDH‐A was not detected (Figure 9a). Therefore, by comparing the decrease, if any, of the lactate concentration secreted by these two cell lines the selectivity of peptides acting against LDH‐A or LDH‐B can be conveniently estimated. When the MCF7 cell line is considered, the linear TH16 and the cyclic TH2 tetrapeptide performed equally, being both responsible for a concentration of secreted lactate 20% lower than that detected in their absence (Figure 9b). […] Accordingly, it seems likely that lipofectamine is effective in assisting the penetration of the TH16 and TH2 peptides into cells, with this action of lipofectamine being much weaker when dealing with a larger molecule, that is, an octapeptide.
To evaluate the competence of peptides in inhibiting the action of LDH‐A in cultured cells, two human cell cultures were used: MCF7 and BxPC3, isolated from breast and pancreatic adenocarcinoma, respectively. Cultures were grown in DMEM (MCF7) or RPMI medium (BxPC3), supplemented with 100 U/ml penicillin/streptomycin, 2 mM glutamine and 10% (v/v) FBS. All the components of the media used for cell culture were obtained from Merck‐Millipore.
The competence of peptides in inhibiting LDH in cultured cells was tested by assessing the concentration of lactate released by MCF7 and BxPC3 cell cultures. To this aim, cells were seeded in duplicate in 24‐wells plates (2 × 10^5/well) and let to adhere overnight; the culture medium was then replaced by Krebs‐Ringer buffer (300 μl/well). Stock solutions of peptides (8 mM in DMSO) were diluted in Krebs‐Ringer buffer to a final concentration of 640 μM and mixed with an equal volume of 4% (v/v, in Krebs‐Ringer buffer) Lipofectamine 2000 (Invitrogen). The final solution was thoroughly mixed, kept for 25 min at room temperature, and finally 100 μl were added to each plate well, obtaining a final peptide concentration equal to 80 μM. The concentration of lactate released in the Krebs–Ringer buffer was determined after 4 h of incubation at 37°C, using the colorimetric assay previously reported (Rossi et al., [2023]). Each experiment was performed in triplicate and included control samples consisting of untreated cell cultures exposed to the same final concentration of DMSO (1%, v/v) and Lipofectamine (0.5%, v/v) to which were exposed the samples treated with peptides.

[7] = test system: BxPC3 cells; assay: Colorimetric assay of lactate secretion by BxPC3 cells (expressing LDH-B); type: cell-based, human; conditions: BxPC3, 80 μM peptide with Lipofectamine 2000 (0.5% v/v), 1% DMSO, Krebs-Ringer buffer, 4 h, 37°C, n = 3
Description: Having identified peptides able to interfere with the assembly of monomeric LDH‐A into catalytically active tetramer, we considered of interest to test the action of peptides against LDH‐A expressed in human cell lines. In particular, we analyzed the lactate secreted by cultured human cells exposed or not to the peptides better performing as inhibitors of LDH‐A in vitro, that is, TH1, TH2, and TH16. Moreover, we used two different cell lines exclusively expressing LDH‐A or LDH‐B, that is, MCF7 and BxPC3, respectively. In MCF7 cells, the [mRNALDH‐A]/[mRNALDH‐B] ratio is indeed equal to ca. 150 (Figure 9a), whereas in BxPC3 cells the messenger coding for LDH‐A was not detected (Figure 9a). Therefore, by comparing the decrease, if any, of the lactate concentration secreted by these two cell lines the selectivity of peptides acting against LDH‐A or LDH‐B can be conveniently estimated. When the MCF7 cell line is considered, the linear TH16 and the cyclic TH2 tetrapeptide performed equally, being both responsible for a concentration of secreted lactate 20% lower than that detected in their absence (Figure 9b). […] It should indeed be noted that the assays with cells were performed in the presence of lipofectamine (see Section 5). […] Accordingly, it seems likely that lipofectamine is effective in assisting the penetration of the TH16 and TH2 peptides into cells, with this action of lipofectamine being much weaker when dealing with a larger molecule, that is, an octapeptide.
To evaluate the competence of peptides in inhibiting the action of LDH‐A in cultured cells, two human cell cultures were used: MCF7 and BxPC3, isolated from breast and pancreatic adenocarcinoma, respectively. […]
The competence of peptides in inhibiting LDH in cultured cells was tested by assessing the concentration of lactate released by MCF7 and BxPC3 cell cultures. […] The concentration of lactate released in the Krebs–Ringer buffer was determined after 4 h of incubation at 37°C, using the colorimetric assay previously reported (Rossi et al., [2023]). […]

CC(=O)C(=O)O [pyruvate]
K m for pyruvate, tetrameric LDH‐A [1]: 271 ± 40 µM and 271 µM
K m for pyruvate, monomeric LDH‐A (assembled monomers) [2]: 561 ± 74 µM and 560 µM
K m for pyruvate, tetrameric enzyme ([3]; ref Pasti et al., 2022): 252 µM
K m for pyruvate, tetrameric enzyme ([3]; ref Pettit et al., 1981): 398 µM

H-GQND(OBn)-OH (SMILES NCC(=O)N[C@@H](CCC(N)=O)C(=O)N[C@@H](CC(N)=O)C(=O)N[C@@H](CC(=O)OCc1ccccc1)C(=O)O) [TH14]
Inhibition (%) of LDH‐A activity [4]: 15 ± 4%

H-GQND-OBn (SMILES NCC(=O)N[C@@H](CCC(N)=O)C(=O)N[C@@H](CC(N)=O)C(=O)N[C@@H](CC(=O)O)C(=O)OCc1ccccc1) [TH6]
Inhibition (%) of LDH‐A activity [4]: 14 ± 7%

H-GQNGISDL-OH [TH1]
Inhibition (%) of LDH‐A activity [4]: 36 ± 1%
inhibition of tetrameric LDH‐A activity (in words) [5]: no significant inhibition
catalytic action exerted by tetrameric LDH‐A in the presence of peptide ([5]; without peptide 433 ± 11 nM/s): 452 ± 19 nM/s
decrease of the concentration of secreted lactate [6]: did not induce any significant effect
effect on lactate secretion [7]: did not induce any significant effect

H-KSD[dL]-OH (SMILES CC(C)C[C@@H](NC(=O)[C@H](CC(=O)O)NC(=O)[C@H](CO)NC(=O)[C@@H](N)CCCCN)C(=O)O) [TH19]
Inhibition (%) of LDH‐A activity [4]: 4 ± 3%

H‐Gly‐Gln‐Asn‐Asp‐OH [TH16]
Inhibition (%) of LDH‐A activity [4]: 22 ± 2%
decrease of the concentration of secreted lactate [6]: 20%
effect on lactate production in the absence of lipofectamine ([6]; MCF7, peptide without lipofectamine): negligible and not significant effects
effect on lactate secretion [7]: no significant differences

H‐Lys‐Ser‐Asp‐Leu‐OH [TH18]
Inhibition (%) of LDH‐A activity [4]: 5 ± 6%
